Results as given in ChEMBL document CHEMBL3297644, “Discovery of a 4-aryloxy-1H-pyrrolo[3,2-c]pyridine and a 1-aryloxyisoquinoline series of TRPA1 antagonists” (Bioorg Med Chem Lett, 2014).
≈ marks a conversion by molar mass, not a printed value.

Assays:
[1] = biological target: Transient receptor potential cation channel subfamily A member 1 (Homo sapiens, UniProt O75762); assay: Antagonist activity at human TRPA1 expressed in HEK293-TREx cells assessed as intracellular level after 48 of 72 hrs by Fluo-4 NW staining-based fluorescence analysis; type: cell-based
Sequence of Transient receptor potential cation channel subfamily A member 1 (Homo sapiens, UniProt O75762) (O75762 whole entry): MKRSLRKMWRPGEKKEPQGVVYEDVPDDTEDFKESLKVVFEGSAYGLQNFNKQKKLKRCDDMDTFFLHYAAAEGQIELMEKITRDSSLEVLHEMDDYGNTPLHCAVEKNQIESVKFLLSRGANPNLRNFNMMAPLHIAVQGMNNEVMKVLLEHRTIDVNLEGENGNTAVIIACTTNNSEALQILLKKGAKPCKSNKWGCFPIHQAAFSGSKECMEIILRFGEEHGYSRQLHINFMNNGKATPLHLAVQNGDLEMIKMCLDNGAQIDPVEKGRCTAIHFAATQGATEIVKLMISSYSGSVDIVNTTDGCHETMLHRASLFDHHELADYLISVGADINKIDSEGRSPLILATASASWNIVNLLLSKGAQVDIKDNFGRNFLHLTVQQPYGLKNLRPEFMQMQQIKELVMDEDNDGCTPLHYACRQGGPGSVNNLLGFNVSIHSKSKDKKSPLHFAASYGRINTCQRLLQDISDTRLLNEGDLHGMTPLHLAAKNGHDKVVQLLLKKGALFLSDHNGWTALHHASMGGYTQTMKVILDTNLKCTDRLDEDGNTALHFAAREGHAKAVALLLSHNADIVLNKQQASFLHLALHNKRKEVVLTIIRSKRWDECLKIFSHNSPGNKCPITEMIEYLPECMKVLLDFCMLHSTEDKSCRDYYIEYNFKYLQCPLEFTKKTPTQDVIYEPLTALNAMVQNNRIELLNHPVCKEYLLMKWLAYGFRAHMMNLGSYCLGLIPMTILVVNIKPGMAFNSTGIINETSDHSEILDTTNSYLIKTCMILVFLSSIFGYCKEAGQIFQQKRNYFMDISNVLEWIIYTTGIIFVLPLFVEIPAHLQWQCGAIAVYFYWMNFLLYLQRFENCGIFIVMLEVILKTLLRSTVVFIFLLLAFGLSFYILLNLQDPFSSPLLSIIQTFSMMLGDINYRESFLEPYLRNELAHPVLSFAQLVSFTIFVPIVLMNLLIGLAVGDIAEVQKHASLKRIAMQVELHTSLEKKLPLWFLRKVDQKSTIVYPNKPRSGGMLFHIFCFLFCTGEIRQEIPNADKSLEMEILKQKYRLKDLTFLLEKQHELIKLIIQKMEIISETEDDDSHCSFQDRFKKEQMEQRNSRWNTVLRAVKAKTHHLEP

Cytochrome P450 3A4 = Cytochrome P450 3A4 (Homo sapiens, UniProt P08684); assay: Inhibition of CYP3A4 in human liver microsomes by LC-MS/MS/competitive screening assay; type: ADME
Sequence of Cytochrome P450 3A4 (P08684 whole entry): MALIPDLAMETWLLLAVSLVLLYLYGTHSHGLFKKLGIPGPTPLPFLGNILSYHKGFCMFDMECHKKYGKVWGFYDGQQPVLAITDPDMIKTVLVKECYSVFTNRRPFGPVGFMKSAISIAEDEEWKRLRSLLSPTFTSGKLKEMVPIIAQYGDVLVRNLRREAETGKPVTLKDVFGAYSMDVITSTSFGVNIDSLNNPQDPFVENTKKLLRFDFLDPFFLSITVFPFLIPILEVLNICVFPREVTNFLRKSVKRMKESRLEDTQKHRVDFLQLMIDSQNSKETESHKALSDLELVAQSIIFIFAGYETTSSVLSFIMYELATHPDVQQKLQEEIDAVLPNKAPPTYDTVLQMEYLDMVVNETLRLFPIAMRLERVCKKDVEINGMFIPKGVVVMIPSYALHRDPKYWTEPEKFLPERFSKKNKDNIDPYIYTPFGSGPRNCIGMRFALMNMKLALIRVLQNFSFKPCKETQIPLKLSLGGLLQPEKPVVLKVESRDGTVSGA

Cytochrome P450 1A2 [2] = biological target: T1, Cytochrome P450 1A2 (Homo sapiens, UniProt P05177); assay: Inhibition of CYP1A2 in human liver microsomes by LC-MS/MS/competitive screening assay; type: ADME
T1 sequence (P05177 whole entry): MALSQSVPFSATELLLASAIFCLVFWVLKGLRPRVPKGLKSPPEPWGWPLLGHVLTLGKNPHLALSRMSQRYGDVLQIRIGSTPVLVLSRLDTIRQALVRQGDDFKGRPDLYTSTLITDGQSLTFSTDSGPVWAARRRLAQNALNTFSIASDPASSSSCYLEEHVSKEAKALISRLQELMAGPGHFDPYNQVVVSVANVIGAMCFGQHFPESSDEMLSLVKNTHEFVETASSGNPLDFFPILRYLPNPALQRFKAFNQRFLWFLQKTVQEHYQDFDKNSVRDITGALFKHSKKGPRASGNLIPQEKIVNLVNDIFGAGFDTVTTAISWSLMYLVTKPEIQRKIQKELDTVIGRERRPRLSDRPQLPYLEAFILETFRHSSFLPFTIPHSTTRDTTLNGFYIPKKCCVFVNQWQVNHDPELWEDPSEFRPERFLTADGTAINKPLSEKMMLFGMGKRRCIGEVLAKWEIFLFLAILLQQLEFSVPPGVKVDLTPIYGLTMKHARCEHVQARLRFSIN

[3] = Thermodynamic solubility of the compound in buffer at pH 7.4 by HPLC/UV detection; type: physicochemical; conditions: read-out: Therm_solubility
Cytochrome P450 2D6 = Cytochrome P450 2D6 (Homo sapiens, UniProt P10635); assay: Inhibition of CYP2D6 in human liver microsomes by LC-MS/MS/competitive screening assay; type: ADME
Sequence of Cytochrome P450 2D6 (P10635 whole entry): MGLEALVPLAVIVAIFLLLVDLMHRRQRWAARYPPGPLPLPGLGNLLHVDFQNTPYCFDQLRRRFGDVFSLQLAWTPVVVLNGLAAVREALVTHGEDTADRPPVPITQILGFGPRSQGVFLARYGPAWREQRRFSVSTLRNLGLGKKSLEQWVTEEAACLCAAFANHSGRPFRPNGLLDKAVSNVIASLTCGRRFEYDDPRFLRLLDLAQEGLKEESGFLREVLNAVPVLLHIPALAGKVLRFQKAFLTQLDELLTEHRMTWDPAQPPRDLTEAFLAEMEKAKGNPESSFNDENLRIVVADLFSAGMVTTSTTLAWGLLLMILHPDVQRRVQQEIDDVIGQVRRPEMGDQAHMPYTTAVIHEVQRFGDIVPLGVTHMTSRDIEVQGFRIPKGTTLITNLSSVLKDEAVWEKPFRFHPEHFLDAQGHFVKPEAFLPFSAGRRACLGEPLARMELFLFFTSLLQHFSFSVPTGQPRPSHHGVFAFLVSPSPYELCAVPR

[4] = Intrinsic clearance in human liver microsomes at 1 uM in presence of NADPH; type: ADME; conditions: read-out: CLH
Cytochrome P450 2C19 = Cytochrome P450 2C19 (Homo sapiens, UniProt P33261); assay: Inhibition of CYP2C19 in human liver microsomes by LC-MS/MS/competitive screening assay; type: ADME
Sequence of Cytochrome P450 2C19 (P33261 whole entry): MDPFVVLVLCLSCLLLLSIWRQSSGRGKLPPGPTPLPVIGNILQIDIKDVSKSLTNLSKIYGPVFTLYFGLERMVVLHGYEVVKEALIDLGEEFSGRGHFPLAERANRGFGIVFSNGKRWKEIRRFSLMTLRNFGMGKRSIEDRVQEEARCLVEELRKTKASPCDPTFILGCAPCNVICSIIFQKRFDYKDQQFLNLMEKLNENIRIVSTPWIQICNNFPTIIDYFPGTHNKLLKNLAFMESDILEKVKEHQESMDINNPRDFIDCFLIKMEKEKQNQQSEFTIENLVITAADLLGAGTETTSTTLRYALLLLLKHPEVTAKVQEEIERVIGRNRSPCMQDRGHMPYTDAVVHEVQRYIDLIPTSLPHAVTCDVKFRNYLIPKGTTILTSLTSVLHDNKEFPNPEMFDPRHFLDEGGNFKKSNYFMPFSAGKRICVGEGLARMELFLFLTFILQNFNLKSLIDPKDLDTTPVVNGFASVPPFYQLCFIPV

[5] = Apparent permeability across apical to basolateral side in human Caco2 cells at 10 uM at pH 7.4 by Transwell assay; type: ADME, cell-based; conditions: Caco-2, pH 7.4
[6] = biological target: Transient receptor potential cation channel subfamily A member 1 (Rattus norvegicus, UniProt Q6RI86); assay: Antagonist activity at rat TRPA1 expressed in HEK293-TREx cells assessed as intracellular level after 48 of 72 hrs by Fluo-4 NW staining-based fluorescence analysis; type: cell-based
Sequence of Transient receptor potential cation channel subfamily A member 1 (Rattus norvegicus, UniProt Q6RI86) (Q6RI86 whole entry): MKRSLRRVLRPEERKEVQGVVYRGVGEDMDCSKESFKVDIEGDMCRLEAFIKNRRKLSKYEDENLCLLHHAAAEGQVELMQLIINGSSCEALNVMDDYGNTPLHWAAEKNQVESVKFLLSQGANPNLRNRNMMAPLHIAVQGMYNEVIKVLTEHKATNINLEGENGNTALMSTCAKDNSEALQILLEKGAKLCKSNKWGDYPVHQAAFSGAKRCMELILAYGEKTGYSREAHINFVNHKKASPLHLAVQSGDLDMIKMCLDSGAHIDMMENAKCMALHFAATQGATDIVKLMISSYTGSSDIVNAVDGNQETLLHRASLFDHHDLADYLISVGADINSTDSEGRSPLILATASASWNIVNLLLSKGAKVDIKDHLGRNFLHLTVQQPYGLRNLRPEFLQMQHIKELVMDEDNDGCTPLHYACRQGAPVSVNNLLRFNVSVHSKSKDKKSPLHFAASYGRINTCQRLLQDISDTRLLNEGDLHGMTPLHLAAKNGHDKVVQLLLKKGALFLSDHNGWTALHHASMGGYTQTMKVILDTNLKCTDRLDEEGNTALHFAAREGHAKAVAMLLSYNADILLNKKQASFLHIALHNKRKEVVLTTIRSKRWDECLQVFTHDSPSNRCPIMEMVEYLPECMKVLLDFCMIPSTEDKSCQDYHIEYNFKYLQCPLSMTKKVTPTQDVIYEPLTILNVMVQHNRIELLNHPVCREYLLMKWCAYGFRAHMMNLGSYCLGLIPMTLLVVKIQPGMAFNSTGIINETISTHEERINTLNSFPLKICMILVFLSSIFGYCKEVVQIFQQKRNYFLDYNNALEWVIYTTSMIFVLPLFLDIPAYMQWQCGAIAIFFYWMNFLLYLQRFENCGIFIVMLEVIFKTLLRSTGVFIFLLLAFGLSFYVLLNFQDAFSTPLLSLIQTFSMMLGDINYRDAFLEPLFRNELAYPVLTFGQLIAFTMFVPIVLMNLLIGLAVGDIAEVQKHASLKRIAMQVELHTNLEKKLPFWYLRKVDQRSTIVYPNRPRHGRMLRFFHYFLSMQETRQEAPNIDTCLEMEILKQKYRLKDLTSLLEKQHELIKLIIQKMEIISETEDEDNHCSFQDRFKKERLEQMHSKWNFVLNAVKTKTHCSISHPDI

Cytochrome P450 1A2 [7] = biological target: T1, Cytochrome P450 1A2; assay: Time dependent inhibition of CYP1A2 in human liver microsomes assessed as shift at 10 uM; type: ADME; conditions: pooled result: one value given for 4 cell lines, strains, targets or settings
Cytochrome P450 2C9 = Cytochrome P450 2C9 (Homo sapiens, UniProt P11712); assay: Inhibition of CYP2C9 in human liver microsomes by LC-MS/MS/competitive screening assay; type: ADME
Sequence of Cytochrome P450 2C9 (P11712 whole entry): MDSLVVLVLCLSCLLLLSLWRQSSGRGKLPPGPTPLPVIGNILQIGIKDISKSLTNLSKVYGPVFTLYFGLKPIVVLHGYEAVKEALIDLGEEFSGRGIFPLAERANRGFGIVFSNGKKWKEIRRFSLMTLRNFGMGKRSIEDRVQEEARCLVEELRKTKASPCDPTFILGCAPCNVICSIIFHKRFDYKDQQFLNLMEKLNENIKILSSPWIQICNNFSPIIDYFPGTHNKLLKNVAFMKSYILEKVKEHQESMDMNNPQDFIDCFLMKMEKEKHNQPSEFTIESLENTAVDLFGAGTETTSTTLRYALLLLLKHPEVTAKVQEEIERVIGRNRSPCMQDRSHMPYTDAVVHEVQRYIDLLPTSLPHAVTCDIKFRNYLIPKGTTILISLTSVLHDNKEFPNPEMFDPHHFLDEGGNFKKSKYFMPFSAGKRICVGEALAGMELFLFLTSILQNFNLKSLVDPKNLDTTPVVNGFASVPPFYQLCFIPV

[8] = Chemical stability in buffer solution assessed as compound remaining at pH 7 at 70 degC after 24 hrs by HPLC/UV detection; type: physicochemical; conditions: read-out: Stability
[9] = Chemical stability in buffer solution assessed as compound remaining at pH 14 at 70 degC after 24 hrs by HPLC/UV detection; type: physicochemical; conditions: read-out: Stability
[10] = biological target: Transient receptor potential cation channel subfamily V member 1 (Homo sapiens, UniProt Q8NER1); assay: Inhibition of human TRPV1
Sequence of Transient receptor potential cation channel subfamily V member 1 (Q8NER1 whole entry): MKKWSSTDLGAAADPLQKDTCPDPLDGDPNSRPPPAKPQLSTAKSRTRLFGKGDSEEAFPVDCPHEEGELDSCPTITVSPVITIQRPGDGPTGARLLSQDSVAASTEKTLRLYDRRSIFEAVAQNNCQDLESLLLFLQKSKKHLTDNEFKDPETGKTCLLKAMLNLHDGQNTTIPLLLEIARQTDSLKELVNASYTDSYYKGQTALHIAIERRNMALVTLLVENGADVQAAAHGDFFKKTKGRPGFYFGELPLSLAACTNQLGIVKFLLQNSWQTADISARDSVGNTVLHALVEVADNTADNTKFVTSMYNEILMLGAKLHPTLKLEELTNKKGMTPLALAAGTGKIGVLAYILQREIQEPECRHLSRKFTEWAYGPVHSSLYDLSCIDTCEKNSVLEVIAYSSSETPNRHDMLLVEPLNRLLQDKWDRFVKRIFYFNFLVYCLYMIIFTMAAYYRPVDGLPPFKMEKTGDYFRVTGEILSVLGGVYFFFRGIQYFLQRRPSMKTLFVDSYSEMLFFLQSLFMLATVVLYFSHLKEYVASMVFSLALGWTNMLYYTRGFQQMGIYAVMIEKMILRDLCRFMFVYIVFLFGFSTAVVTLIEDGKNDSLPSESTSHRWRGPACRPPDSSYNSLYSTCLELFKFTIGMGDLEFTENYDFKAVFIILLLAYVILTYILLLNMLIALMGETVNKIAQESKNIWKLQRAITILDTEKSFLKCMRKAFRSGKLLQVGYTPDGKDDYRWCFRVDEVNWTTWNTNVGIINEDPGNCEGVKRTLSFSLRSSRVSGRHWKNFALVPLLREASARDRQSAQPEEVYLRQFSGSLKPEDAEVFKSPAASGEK

[11] = Chemical stability in buffer solution assessed as compound remaining at pH 1 at 70 degC after 24 hrs by HPLC/UV detection; type: physicochemical; conditions: read-out: Stability

COc1ccc2c(Oc3ccc(F)cc3F)ncnc2c1
IC50 [1]: 3000 nM

Fc1ccc(Oc2nccc3ccoc23)c(F)c1
IC50 [1]: 1100 nM

N#Cc1ccc(Oc2ncnc3[nH]ccc23)cc1
IC50 [1]: > 32000 nM

Fc1cccc(Oc2ncnc3[nH]ccc23)c1
IC50 [1]: > 32000 nM

Fc1ccccc1Oc1ncnc2[nH]ccc12
IC50 [1]: > 32000 nM

Cc1c[nH]c2ncnc(Oc3ccc(F)cc3F)c12
IC50 [1]: 650 nM

COc1cc2ccnc(Oc3ccc(F)cc3F)c2cc1OC
IC50 [1]: 630 nM

Fc1ccc(Oc2ccncn2)c(F)c1
IC50 [1]: > 32000 nM

O=[N+]([O-])c1ccc(Oc2ncnc3[nH]ccc23)cc1
IC50 [1]: > 32000 nM

Fc1ccc(Oc2nccc3[nH]ccc23)cc1
IC50 (Cytochrome P450 3A4): > 20 µM | IC50 (Cytochrome P450 1A2 [2]): > 20 µM | solubility thermodynamic [3]: 24 µM (≈ 5.48 µg/mL) | IC50 (Cytochrome P450 2D6): > 20 µM | microsomal CLint at 1 µM [4]: 74 µL/min/mg | IC50 (Cytochrome P450 2C19): > 20 µM | Papp A→B at 10 µM [5]: 12 ×10⁻⁶ cm/s | IC50 [6]: 1200 nM | TDI (Cytochrome P450 1A2 [7]): 31% | IC50 (Cytochrome P450 2C9): > 20 µM | IC50 [1]: 310 nM

Fc1ccc(Oc2ncnc3[nH]ccc23)cc1F
IC50 [1]: 3000 nM

COc1ccc2ncnc(Oc3ccc(F)cc3F)c2c1
IC50 [1]: > 32000 nM

Cc1ccc(Oc2ncnc3[nH]ccc23)cc1
IC50 [1]: > 32000 nM

Cc1ccc(Oc2ncnc3[nH]ccc23)c(C)c1
IC50 [1]: > 32000 nM

Fc1ccc(Oc2ncnc3occc23)c(F)c1
IC50 [1]: > 32000 nM

COc1cc2ncnc(Oc3ccc(F)cc3F)c2cc1OC
IC50 [1]: 1200 nM

Fc1ccc(Oc2ncnc3[nH]ccc23)c(F)c1
IC50 [1]: 710 nM

Fc1ccc(Oc2ncnc3ccccc23)c(F)c1
IC50 [1]: > 32000 nM

Fc1ccc(Oc2nccc3occc23)c(F)c1
IC50 [1]: 2200 nM

Fc1ccc(Oc2ncnc3[nH]cc(I)c23)c(F)c1
IC50 [1]: 2500 nM

Fc1ccc(Oc2ccnc3[nH]ccc23)c(F)c1
IC50 [1]: > 32000 nM

Clc1ccc(Oc2ncnc3[nH]ccc23)cc1
IC50 [1]: > 32000 nM

Fc1ccc(Oc2nccc3ccccc23)c(F)c1
IC50 [1]: 3100 nM

Fc1ccc(Oc2ncnc3[nH]cc(Cl)c23)c(F)c1
IC50 [1]: 630 nM

Fc1ccc(Oc2ncnc3cc[nH]c23)c(F)c1
IC50 [1]: > 32000 nM

Cn1ccc2c(Oc3ccc(F)cc3F)ncnc21
IC50 [1]: > 32000 nM

Cc1ccccc1Oc1ncnc2[nH]ccc12
IC50 [1]: > 32000 nM

Fc1cccc(Oc2ncnc3[nH]ccc23)c1F
IC50 [1]: 2700 nM

CCc1c[nH]c2ncnc(Oc3ccc(F)cc3F)c12
IC50 [1]: 1600 nM

Cc1cc2c(Oc3ccc(F)cc3F)ncnc2[nH]1
IC50 [1]: 1200 nM

Fc1ccc(Oc2cccc3[nH]ccc23)c(F)c1
IC50 [1]: 1100 nM

COc1ccc2c(Oc3ccc(F)cc3F)nccc2c1
IC50 [1]: 1300 nM

c1ccc(Oc2ncnc3[nH]ccc23)cc1
IC50 [1]: 3200 nM

Cc1[nH]c2ncnc(Oc3ccc(F)cc3F)c2c1C
IC50 [1]: 2000 nM

COc1ccc(Oc2ncnc3[nH]ccc23)cc1
IC50 [1]: > 32000 nM

Fc1ccc(Cc2ncnc3[nH]ccc23)cc1
IC50 [1]: > 32000 nM

Fc1ccc(Oc2ncnc3[nH]ccc23)cc1
IC50 (Cytochrome P450 3A4): > 20 µM | IC50 (Cytochrome P450 1A2 [2]): > 20 µM | solubility thermodynamic [3]: 33 µM (≈ 7.56 µg/mL) | IC50 (Cytochrome P450 2D6): > 20 µM | microsomal CLint at 1 µM [4]: 24 µL/min/mg | IC50 (Cytochrome P450 2C19): > 20 µM | Papp A→B at 10 µM [5]: 18 ×10⁻⁶ cm/s | IC50 [6]: 3000 nM | remaining at 24 h [8]: 100% | TDI (Cytochrome P450 1A2 [7]): 44% | IC50 (Cytochrome P450 2C9): > 20 µM | remaining at 24 h [9]: 100% | IC50 [1]: 410 nM | IC50 [10]: > 10 µM | remaining at 24 h [11]: 10%

Fc1ccc(Oc2nccc3[nH]ccc23)c(F)c1
IC50 (Cytochrome P450 3A4): > 20 µM | IC50 (Cytochrome P450 1A2 [2]): > 20 µM | solubility thermodynamic [3]: 77 µM (≈ 19 µg/mL) | IC50 (Cytochrome P450 2D6): > 20 µM | microsomal CLint at 1 µM [4]: 45 µL/min/mg | IC50 (Cytochrome P450 2C19): > 20 µM | Papp A→B at 10 µM [5]: 33 ×10⁻⁶ cm/s | IC50 [6]: 1700 nM | remaining at 24 h [8]: 100% | TDI (Cytochrome P450 1A2 [7]): 42% | IC50 (Cytochrome P450 2C9): > 20 µM | remaining at 24 h [9]: 100% | IC50 [1]: 320 nM | IC50 [10]: > 10 µM | remaining at 24 h [11]: 100%

Fc1ccc(Oc2ncnc3ccoc23)c(F)c1
IC50 [1]: > 32000 nM

Fc1cc(F)c(Oc2ncnc3[nH]ccc23)c(F)c1
IC50 [1]: > 32000 nM

Fc1ccc(Nc2ncnc3[nH]ccc23)cc1
IC50 [1]: > 32000 nM

COc1cc2ccnc(Oc3ccc(F)cc3)c2cc1OC
IC50 (Cytochrome P450 3A4): 1.9 µM | IC50 (Cytochrome P450 1A2 [2]): 1.9 µM | solubility thermodynamic [3]: 8 µM (≈ 2.39 µg/mL) | IC50 (Cytochrome P450 2D6): 1.9 µM | microsomal CLint at 1 µM [4]: 110 µL/min/mg | IC50 (Cytochrome P450 2C19): 1.9 µM | Papp A→B at 10 µM [5]: 6 ×10⁻⁶ cm/s | IC50 [6]: 1800 nM | IC50 (Cytochrome P450 2C9): 1.9 µM | IC50 [1]: 330 nM
